In US20090215791A1, “NEW THERAPEUTIC USE OF 4-(2-FLUOROPHENYL)-6-METHYL-2-(1-PIPERAZINYL)THIENO[2,3-D]PYRIMIDINE” (Dynogen Pharmaceuticals, Inc., priority 2001, published 2009):

Legend:
[1] = tested on: inflammatory pain (inflamed paw); assay: Inflammatory pain, modified Randall Selitto method, paw pressure analgesiometer (Study 1); assay type: in vivo, rats; details: for Group mean (±sd) pain threshold (g) of inflamed paw at 1 hour pre-dose / Group mean (±sd) pain threshold (g) of inflamed paw at 2 hour pre-dose: baseline before dosing, 13 per group, groups later given MCI-225 30 mg/kg or indomethacin 1 mg/kg
Method: Three groups of rats received vehicle, indomethacin or MCI-225. There were 13 rats in each group. Inflammatory pain was induced following a modified Randall Selitto method and the pain threshold of the inflamed paw was measured using a paw pressure analgesiometer. The threshold for paw withdrawal was measured in grams at 1 and 3 hours post dose.

[2] = tested on: reflex depressor response to colorectal distension; assay: Reflex depressor response to colorectal distension in anesthetised rats (Study 2); assay type: in vivo, male Sprague-Dawley rats; details: for Fall in arterial blood pressure (mean absolute decrease in mean arterial pressure, SEM in brackets) evoked by balloon distension: after MCI-225 3 mg/kg i.v.
Method: In Study 2, using intact animals, the ability of a drug to inhibit the reflex depressor response to colorectal distension can be assessed. In this model, an inhibition of the reflex indicates modulation of visceral nociceptive neurotransmission and, therefore, the use of the drug in functional bowel disease (e.g IBS); see Kozlowski et al, 2000, Gut 46, 474-480. Allodynia and visceral pain are important components of functional bowel disease.
Experiments were performed on male Sprague-Dawley rats (250-300 g). Anesthesia was induced with isoflurane (2.5% in oxygen) and maintained with alpha chlorolose (80 mg/kg i.v.). The left carotid artery was cannulated for the measurement of blood pressure and heart rate and the left jugular vein cannulated for drug administration. A tracheal cannula was implanted for artificial respiration if required. A 10 mm long latex balloon was inserted intrarectally so that the tip of the balloon was 20 mm from the anal verge (Kozlowski et al, supra). The balloon was connected via a double lumen cannula to a pressure transducer and also to a saline-filled syringe for inflation/deflation of the balloon. Throughout the experiment, body temperature was kept constant at 36-38 C using a homeothermic blanket.
Once stable baseline parameters were obtained (approximately after 20 minutes), the balloon was rapidly inflated with increasing volumes of saline (0.5-2.5 ml) for 30 seconds at 5 minute intervals, and the resultant change in blood pressure recorded. Three distinct response curves were constructed, with a 10 minute stabilisation period between each curve. In one group of animals, 10 minutes prior to the commencement of the final distension response curve, a single bolus of MCI-225 (3 mg/kg) was administered intravenously; in a second group of animals, a single bolus dose of vehicle was administered. The effect of MCI-225 and vehicle was determined by analysing the changes in colorectal distension that evoked depressor response.

SMILES | Group mean (±sd) pain threshold (g) of inflamed paw at 1 hour pre-dose ([1]; rats) [g] | Group mean (±sd) pain threshold (g) of inflamed paw at 2 hour pre-dose ([1]; rats) [g] | Fall in arterial blood pressure (mean absolute decrease in mean arterial pressure, SEM in brackets) evoked by balloon distension ([2]; 0.5 ml balloon volume, n=6, before drug 2.7 (1.9)) | Fall in arterial blood pressure (mean absolute decrease in mean arterial pressure, SEM in brackets) evoked by balloon distension ([2]; 1.0 ml balloon volume, n=6, before drug 12.4 (5.9)) | Fall in arterial blood pressure (mean absolute decrease in mean arterial pressure, SEM in brackets) evoked by balloon distension ([2]; 1.5 ml balloon volume, n=6, before drug 24.0 (8.9)) | Fall in arterial blood pressure (mean absolute decrease in mean arterial pressure, SEM in brackets) evoked by balloon distension ([2]; 2.0 ml balloon volume, n=6, before drug 36.3 (4.8), p<0.01 paired t test) | Fall in arterial blood pressure (mean absolute decrease in mean arterial pressure, SEM in brackets) evoked by balloon distension ([2]; 2.5 ml balloon volume, n=5, before drug 43.4 (6.0), p<0.05 paired t test) | Effect on distension-induced falls in blood pressure (in words) ([2]; MCI-225 3 mg/kg i.v., significant at 2.0 and 2.5 ml balloon volumes) | Group mean changes (±sd) in pain threshold (g) from pre-dose reading at 1 hour post-dose ([1]; 1 hour post-dose, MCI-225 30 mg/kg (oral), indomethacin 1 mg/kg, rats, * p<0.05, ** p<0.01 vs vehicle, monohydrate hydrochloride) [g] | Group mean changes (±sd) in pain threshold (g) from pre-dose reading at 3 hour post-dose ([1]; 3 hour post-dose, MCI-225 30 mg/kg (oral), indomethacin 1 mg/kg, rats, * p<0.05, ** p<0.01 vs vehicle, monohydrate hydrochloride) [g] | Analgesic activity in in vivo model of inflammatory pain (in words) ([1]; MCI-225 oral dose of 30 mg/kg versus indomethacin 1 mg/kg)
COc1ccc2c(c1)c(CC(=O)O)c(C)n2C(=O)c1ccc(Cl)cc1 [Indomethacin, indomethacin, reference compound] | 166.2 ± 68.32 | 144.2 ± 41.32 | – | – | – | – | – | – | – | – | –
Cc1cc2c(-c3ccccc3F)nc(N3CCNCC3)nc2s1.Cl.O [MCI-225, 4-(2-Fluorophenyl)-6-methyl-2-(1-piperazinyl)thieno[2,3-D]pyrimidine monohydrate hydrochloride] | 147.7 ± 65.91 | 138.5 ± 34.72 | 2.2 (1.65) mmHg | 6.3 (2.6) mmHg | 10.6 (3.9) mmHg | 15.3 (5.4) mmHg | 24.6 (7.3) mmHg | inhibited the distension-induced falls in blood pressure | 32.3 | 66.9 | comparable to that of indomethacin
